Source: US20250255857A1, “METHODS OF TREATING ANDROGEN RECEPTOR-INDEPENDENT PROSTATE CANCER” (FOGHORN THERAPEUTICS INC., priority 2022, published 2025)

Tests used:
[1] = tested on: LNCaP prostate xenograft tumors; experiment: LNCaP prostate xenograft tumor model, tumor growth inhibition; type: in vivo, mice
Description: (§1) Procedure: The experimental details of the studies, including tumor model, mouse strain, cell number implanted, vehicle used, days of treatment, treatment details, and average tumor size at start of dosing are outlined in Table 1. All study mice were purchased from Beijing Anikeeper Biotech and Matrigel was utilized as a basement membrane for all xenograft models. All xenografts were engrafted subcutaneously in the right flank region. The vehicles and Compound 1 (3 mg/kg) were administered twice weekly (BIW) intraperitoneally and enzalutamide (30 mg/kg) was administered orally once daily (QD), when applicable. Tumor volumes and body weights were measured over the course of study, and doses were adjusted by body weight to achieve the proper dose in terms of mg/kg.

[2] = tested on: VCaP prostate xenograft tumors; experiment: VCaP prostate xenograft tumor model (Example 1), tumor growth inhibition; type: in vivo, mice; details: VCaP CDX model, AR V7+; 30 mg/kg QD oral
Description: as §1

[3] = tested on: C42B prostate xenograft tumors; experiment: C42B prostate xenograft tumor model, tumor growth inhibition; type: in vivo, mice; details: C42B CDX model, AR+; 30 mg/kg QD oral
Description: as §1

[4] = tested on: 22Rv1 prostate xenograft tumors; experiment: 22Rv1 prostate xenograft tumor model, tumor growth inhibition; type: in vivo, mice
Description: as §1

[5] = tested on: VCAP human prostate cancer tumor cells; experiment: VCaP CRPC CDX model in castrated mice (Example 6), tumor growth inhibition and tolerability; type: in vivo; details: castrated mice
Description: Procedure: The experimental details of the studies, including tumor model, mouse strain, cell number implanted, vehicle used, days of treatment, treatment details, and average tumor size at start of dosing are outlined in Table 7. All study mice were obtained and the studies were conducted at Pharmaron. Each mouse was inoculated subcutaneously on the right flank with the single cell suspension of VCAP human prostate cancer tumor cells (1×10^7) in 0.1 mL with Matrigel (1:1) in DMEM medium with 10% FBS for tumor development. The mice were castrated by removing the testes via a scrotal approach when the tumor volume reached 270 mm^3. After castration, the tumor volume decreased. Treatment started when the mean tumor volume grew back 265 mm^3. Based on tumor volume, mice were randomly assigned to respective groups using a computer-generated randomization procedure and treated according to the study design in Table 8.

[6] = VCAP CRPC model, Enzalutamide at 30 mg/kg PO QD, 25 days
[7] = VCAP CRPC model, Enzalutamide at 30 mg/kg PO QD, 25 days, Day 57

## CNC(=O)c1ccc(N2C(=S)N(c3ccc(C#N)c(C(F)(F)F)c3)C(=O)C2(C)C)cc1F [enzalutamide, reference compound]
[1]; LNCaP CDX model, AR+, 30 mg/kg QD oral
  TGI with Enzalutamide 30 mg/kg: 92.1%
[1]; LNCaP xenograft, Compound 1 3 mg/kg BIW IP, enzalutamide 30 mg/kg QD oral
  tumor growth inhibition (TGI), in words: did lead to tumor growth inhibition
[2]
  TGI with Enzalutamide 30 mg/kg: 46.8%
[3]
  TGI with Enzalutamide 30 mg/kg: 68.5%
[4]; 22RV1 CDX model, AR V7+, 30 mg/kg QD oral
  TGI with Enzalutamide 30 mg/kg: 40.3%
[4]; 22Rv1 CDX model, Compound 1 3 mg/kg BIW IP, enzalutamide 30 mg/kg QD oral
  TGI: 40.3%
[5]; [6]
  Tumor Growth % on Day 57: 238 ± 9%
  Tumor Size on Day 57: 626 ± 28 mm3
[5]; [7]
  T/C: 76.7%
  TGI: 23.3%
[5]; VCaP CRPC model, Compound 1 10 mg/kg, enzalutamide 30 mg/kg, day 57 after tumor inoculation
  TGI: 23.3%
